According to patent publication US10472607B2, “Culture medium and method for inducing differentiation of pluripotent stem cells into neuroepithelial cells” (National Chung Hsing University, priority 2011, dated 2019):

Test system: TW1 hESCs
Assay: Comparison of additive groups: morphology and Oct4/Nestin immunofluorescence
Type: cell-based, human
Details: compared to group 3 (BIO + SB431542)
Source text: The TW1 hESCs were divided into four groups according to the additives at culture day 3. The detail of the above steps refers to the examples 1 to 3.
Referring to the methods in examples 5 and 6, the protein expressions of Oct4 and Nestin in the each groups and the results were examined and shown in FIG. 9.

fibroblast growth factor-2 [FGF2]
compaction and neural rosettes formation: further enhanced
